From US20190298740A1, “METHODS AND COMPOSITIONS FOR TREATING HALLUCINATIONS AND CONDITIONS RELATED TO THE SAME” (Enterin, Inc., priority 2018, published 2019)
Values joined by “and” are separate entries in the source; they are usually repeats but may differ in a detail not shown here. Equal values may be shown once. “Also recorded” adds a separate entry of the source.

Assays:
mouse models of PD = conditions: cited from earlier work
[1] = Preclinical oral dosing studies in dogs; conditions: dog, in vivo
[2] = test system: patients with PD and constipation; experiment: Bowel function (prokinetic response, stool diary indices), Phase 2 trial; assay type: in vivo, human; conditions: for Cumulative prokinetic response rate (CSBM within 24 hours of dosing): Stage 1, single dose; for Prokinetic response rate (CSBM within 24 hours of dosing on at least 2 of 3 days): Stage 2, daily dosing; for CSBM, weekly average: baseline 1.2 (0.90); for PAC-SYM: baseline 1.3 (0.45); for SBM, weekly average: baseline 2.6 (1.45)
Procedure: Following successful screening, all subjects underwent a 14-day run-in period where the degree of constipation was assessed through a validated daily log (Zinsmeister et al. 2013) establishing baseline CSBMs/week. Subjects with an average of <3 CSBMs/week proceeded to dosing.
Tolerability limits included diarrhea or vomiting.
In Stage 2, 34 patients were evaluated.
The primary efficacy outcome variable was whether or not a subject was a “success” or “failure”. This is an endpoint based on subject diary entries for the “fixed dose” period prior to the endpoint assessment defined as average complete stool frequency increase by 1 or more over baseline, or 3 or more complete spontaneous stools/week. The subject was deemed a “success” if s/he met one or more of the criteria listed above, otherwise the subject was deemed a “failure”. The primary analysis was based on all subjects with a baseline assessment and an assessment at the end of the “fixed-dose” period and was a comparison of the proportion of successes with 0.10 (the null hypothesis corresponding to no treatment effect).

patients with PD = experiment: Circadian rhythm of wrist skin temperature; assay type: in vivo, human; conditions: oral, 12 patients with evaluable data
Procedure: (6) I-Button Temperature Assessment. The I-Button is a small, rugged self-sufficient system that measures temperature and records the results in a protected memory section. The Thermochron I-Button DS1921H (Maxim Integrated, Dallas, Tex.) was used for skin temperature measurement. I-Buttons were programmed to sample every 10 mins., and attached to a double-sided cotton sport wrist band using Velcro, with the sensor face of the I-Button placed over the inside of the wrist, on the radial artery of the dominant hand. Subjects removed and replaced the data logger when necessary (i.e., to have a bath or shower). […] From the collected data, the mesor, amplitude, acrophase (time of peak temperature), Rayleight test (an index of interdaily stability), mean waveforms are calculated);
Assessments were made at baseline and at the end of the fixed dose and washout periods. Circadian system status was evaluated by continuously monitoring wrist skin temperature (Thermochron iButton DS1921H; Maxim, Dallas) following published procedures (Sarabia et al. 2008).
Circadian rhythm of skin temperature was evaluable in 12 patients (i.e., those who had recordings that extended from baseline through washout). Circadian system functionality was evaluated by continuously monitoring wrist skin temperature using a temperature sensor (Thermochron iButton DS1921H; Maxim, Dallas, Tex.) (Sarabia et al. 2008). […]

C. elegans αS model = conditions: in vivo, C. elegans model of PD; cited from earlier work
[3] = Stage 2, n = 34, fixed dose, mean (SD)

**Q.** With `CC(C)[C@@H](CC[C@@H](C)[C@H]1CC[C@H]2[C@@H]3[C@H](O)C[C@H]4C[C@@H](NCCCNCCCCN)CC[C@]4(C)[C@H]3CC[C@]12C)OS(=O)(=O)O` (single isomer, unassigned) [squalamine (ENT-01)] as the molecule, how does the Gastrointestinal motility (mouse models of PD) read?
**A.** Its Gastrointestinal motility is “restores gastrointestinal motility”.

**Q.** What about the bioavailability [1] of the same molecule?
**A.** The bioavailability was about 0.1%.

**Q.** What about the “Patients responding within the effective dose range” value ([2]; 75 mg to 250 mg) of the same molecule?
**A.** Its value is 85%.

**Q.** And the “Cumulative prokinetic response rate (CSBM within 24 hours of dosing)” value ([2]; 25 mg)?
**A.** Its value is 25%.

**Q.** And the “Cumulative prokinetic response rate (CSBM within 24 hours of dosing)” value ([2]; 200 mg (maximum))?
**A.** The value was 80%.

**Q.** What about the Median efficacious dose ([2]; Stage 2) of the same molecule?
**A.** Its Median efficacious dose is 100 mg.

**Q.** And the “Prokinetic response rate (CSBM within 24 hours of dosing on at least 2 of 3 days)” value ([2]; 75 mg)?
**A.** The value was 26%.

**Q.** What about the “Prokinetic response rate (CSBM within 24 hours of dosing on at least 2 of 3 days)” value ([2]; 250 mg) of the same molecule?
**A.** The value was 85.3%.

**Q.** And the “CSBM, weekly average” value [2, 3]?
**A.** Its value is 3.8 /week and 3.8 (2.4) /week.

**Q.** And the PAC-SYM [2, 3]?
**A.** Its PAC-SYM is 1.1 (0.49).

**Q.** What about the “Suppository use / rescue medication, weekly average” value ([2]; Stage 2, n = 34, fixed dose, mean (SD), baseline 1.8 (1.92)) of the same molecule?
**A.** The value was 0.3 /week.

**Q.** And the “SBM, weekly average” value [2, 3]?
**A.** The value was 4.5 /week.

**Q.** What about the “CSBM, weekly average” value ([2]; Stage 2, wash-out, mean (SD)) of the same molecule?
**A.** The value was 1.8 (1.19) /week.

**Q.** And the PAC-SYM ([2]; Stage 2, wash-out, mean (SD))?
**A.** The PAC-SYM was 1.1 (0.60).

**Q.** What about the PAC-QOL ([2]; Stage 2, wash-out, mean (SD), baseline 1.4 (0.49)) of the same molecule?
**A.** Its PAC-QOL is 1.2 (0.63).

**Q.** What about the “Rescue meds, weekly average” value ([2]; Stage 2, wash-out, mean (SD), baseline 1.8 (1.92)) of the same molecule?
**A.** Its value is 1.0 (1.40) /week.

**Q.** What about the “SBM, weekly average” value ([2]; Stage 2, wash-out, mean (SD)) of the same molecule?
**A.** The value was 3.2 (1.80) /week.

**Q.** And the “Stool consistency (Bristol stool scale 1-7)” value ([2]; Stage 2, wash-out, mean (SD), baseline 2.7 (1.20))?
**A.** Its value is 2.8 (1.39).

**Q.** And the “Ease of passage (Ease of evacuation scale 1-7)” value ([2]; Stage 2, wash-out, mean (SD), baseline 3.2 (0.73))?
**A.** Its value is 3.3 (0.81).

**Q.** What about the “CSBM frequency, randomized cohort” value ([2]; group later randomized to placebo (n = 9), fixed dose period on drug, baseline 1.6) of the same molecule?
**A.** The value was 3.3 CSBM/week.

**Q.** And the “CSBM frequency, randomized cohort” value ([2]; group randomized to treatment (n = 6), fixed dose period, baseline 0.8)?
**A.** Its value is 3.2 CSBM/week.

**Q.** What about the “CSBM frequency, randomized cohort” value ([2]; group randomized to treatment (n = 6), randomized period 4-6 days, baseline 0.8) of the same molecule?
**A.** The value was 2.4 CSBM/week.

**Q.** What about the “CSBM frequency, randomized cohort” value ([2]; group randomized to treatment (n = 6), washout, baseline 0.8) of the same molecule?
**A.** The value was 0.9 CSBM/week.

**Q.** What about the “Mean dose required for a bowel response” value ([2]; patients with baseline constipation of <1 CSBM/week) of the same molecule?
**A.** The value was 192 mg.

**Q.** What about the “Mean dose required for a bowel response” value ([2]; patients with baseline ≥1 CSBM/week) of the same molecule?
**A.** Its value is 120 mg.

**Q.** And the “Circadian rhythm of skin temperature, overall” value (patients with PD)?
**A.** Its value is “significant positive impact; also recorded: improved all markers of healthy circadian function”.

**Q.** And the “Formation of aggregates of αS” value (C. elegans αS model)?
**A.** Its value is “inhibits the formation of αS aggregates”.
